Experimental data reported in patent US12139478B2, “Compounds, compositions and methods” (Denali Therapeutics Inc., priority 2017, dated 2024).
Like-named read-outs stand apart in the source and are kept apart here.

Test system: ATF4 translation
Experiment: ATF4 Nano Luciferase reporter integrated stress response (ISR) assay in H4 ATF4-NLuc cells
Assay type: cell-based, human
Conditions: H4 ATF4-NLuc (clone 17) cells, compound 30 minutes, then sodium arsenite for 6 additional hours, luminescence readout
From the text: Cellular stress leads to activation of the integrated stress response pathway through one of four eukaryotic initiation factor 2a kinases and halts global translation, while allowing for the translation of select transcripts like ATF4 (activating transcription factor 4) that are important for the response to cellular stress. During normal conditions, small open reading frames (ORFs) in the 5′ UTR of ATF4 occupy the ribosome and prevent translation of the coding sequence of ATF4. During stress conditions however, the ribosome scans past these upstream ORFs and preferentially begins translation at the coding sequence of ATF4. In this way, the translation, and thus protein level of ATF4 is a readout of ISR pathway activation. Thus, a fusion of the uORFs and the beginning of the coding sequence of ATF to a common cellular reporter like nano-luciferase allows for a sensitive and high-throughput readout of ISR pathway activity.
Compounds as provided herein were tested in the following assay. The ATF4 Nano Luciferase reporter was constructed by fusing the human full length 5′ untranslated region (5′-UTR) and a small portion of the coding sequence of the ATF4 gene upstream of the Nano Luciferase (NLuc) coding sequence lacking it's start codon. Specifically, nucleotides +1 through +364 (relative to the transcriptional start site) of ATF4 transcript variant 2 (NCBI NM_182810.2) flanked 5′ by EcoRI and 3′ by BamHI restriction enzyme sites were synthesized and cloned into the EcoRI/BamHI cloning sites of pLVX-EF1a-IRES-Puro lentivirus vector (Clontech). Lentiviral particles were produced with Lenti-X single shots (VSV-G, Clontech) according to the manufacturer's instructions and used to transduce a human H4 neuroglioma cell line (ATCC HTB-148). H4 cells were selected with 1.25 μg/mL Puromycin, and clonal cell lines generated by limiting dilution. We utilized this cell line to generate an integrated stress response (ISR) assay to evaluate the activity of ISR pathway inhibitors via luminescence readout. The H4 ATF4-NLuc (clone 17) cell line is plated at a density of […] in 96-well or 384-well respectively in DMEM+[…]. 24-hours later test compounds diluted in dimethyl sulfoxide (DMSO) are added for 30 minutes at 37° C., followed by ISR pathway activation with […] sodium arsenite aqueous solution for 6 additional hours. Nano Glo luciferase reagent (N1150, Promega) is added according to manufacturer instructions and the luminescence signal (corresponding to the level of ATF4 translation and thus ISR pathway activation) is read with a standard plate reader with luminescence detection capabilities. […] In the tables below, activity of the tested compounds is provided, and in Table 3 as follows: […]; ++=IC50 1-10 μM; +=IC50>10 μM.

[1] = Homo sapiens, 0.5 h, read-out: Activity
[2] = Homo sapiens, 0.5 h, read-out: Biological Example 1 (ATF4 translation, IC50 nM)

SMILES	IC50 [1] [nM]	IC50 [2] [nM]	IC50 (read-out: Activity) [nM]
O=C(COc1ccc(Cl)c(F)c1)N[C@H]1CO[C@H](c2nnc(C3CC(OC(F)(F)F)C3)o2)CC1(F)F (stereo partly drawn) [Example 62, 2-(4-chloro-3-fluorophenoxy)-N-((3S,6S)-4,4-difluoro-6-(5-(3-cis-(trifluoromethoxy)cyclobutyl)-1,3,4-oxadiazol-2-yl)tetrahydro-2H-pyran-3-yl)acetamide]	< 1000		
O=C(COc1ccc(Cl)cc1)N[C@H]1CO[C@H](c2nnc(C3CC(OC(F)(F)F)C3)o2)[C@@H](F)C1 (stereo partly drawn) [Example 68, 2-(4-chlorophenoxy)-N-((3R,5S,6R)-5-fluoro-6-(5-(3-cis-(trifluoromethoxy)cyclobutyl)-1,3,4-oxadiazol-2-yl)tetrahydro-2H-pyran-3-yl)acetamide]	< 1000		
O=C(COc1ccc(C(F)(F)F)nc1)N[C@@H]1CC[C@@H](c2nnc([C@H]3C[C@@H](OC(F)(F)F)C3)o2)OC1 [Example 39, N-[(3R,6S)-6-[5-[3-cis-(trifluoromethoxy)cyclobutyl]-1,3,4-oxadiazol-2-yl]tetrahydropyran-3-yl]-2-[[6-(trifluoromethyl)-3-pyridyl]oxy]acetamide]	< 1000	36	
O=C(COC1CC(OC(F)(F)F)C1)N[C@@H]1CC[C@@H](c2ccn(-c3ccc(Cl)cc3)n2)OC1 (stereo partly shown) [Example 52]	< 1000	43	
O=C(COc1ccc(F)cc1)N[C@H]1CO[C@H](c2nnc([C@H]3C[C@@H](OC(F)(F)F)C3)o2)C2CC21 (stereo partly drawn) [Example 32, 2-(4-fluorophenoxy)-N-((2S,5R)-2-(5-(3-cis-(trifluoromethoxy)cyclobutyl)-1,3,4-oxadiazol-2-yl)-3-oxabicyclo[4.1.0]heptan-5-yl)acetamide]	< 1000		
O=C(COC1CC(OC(F)(F)F)C1)NC12CCC(c3nnc([C@H]4C[C@@H](OC(F)(F)F)C4)o3)(CC1)OC2 (stereo partly drawn) [Example 14, 2-[3-cis-(trifluoromethoxy)cyclobutoxy]-N-[1-[5-[3-cis-(trifluoromethoxy)cyclobutyl]-1,3,4-oxadiazol-2-yl]-2-oxabicyclo[2.2.2]octan-4-yl]acetamide]	< 1000		
O=C(COC1CC(OC(F)(F)F)C1)NC1CC[C@@H](c2cn([C@H]3C[C@@H](OC(F)(F)F)C3)nn2)OC1 (stereo partly drawn) [Example 18, 2-[3-cis-(trifluoromethoxy)cyclobutoxy]-N-[(3R,6S)-6-[1-[3-cis-(trifluoromethoxy)cyclobutyl]triazol-4-yl]tetrahydropyran-3-yl]acetamide]	< 1000		
O=C(N[C@@H]1CC[C@@H](c2nnc(C3CC(OC(F)(F)F)C3)o2)OC1)c1nc2cc(Cl)ccc2s1 (stereo partly drawn) [Example 43, 5-chloro-N-((3R,6S)-6-(5-(3-cis-(trifluoromethoxy)cyclobutyl)-1,3,4-oxadiazol-2-yl)tetrahydro-2H-pyran-3-yl)benzo[d]thiazole-2-carboxamide]	< 1000		
O=C(COc1ccc(F)cc1F)NC12CCC(c3nnc([C@H]4C[C@@H](OC(F)(F)F)C4)o3)(CC1)OC2 [Example 34, 2-(2,4-difluorophenoxy)-N-[1-[5-[3-cis-(trifluoromethoxy)cyclobutyl]-1,3,4-oxadiazol-2-yl]-2-oxabicyclo[2.2.2]octan-4-yl]acetamide]	< 1000		
O=C(N[C@@H]1CC[C@@H](c2nnc(C3CC(OC(F)(F)F)C3)o2)OC1)c1ccc2cc(Cl)ccc2n1 (stereo partly drawn) [Example 56, 6-chloro-N-[(3R,6S)-6-[5-[3-cis-(trifluoromethoxy)cyclobutyl]-1,3,4-oxadiazol-2-yl]tetrahydropyran-3-yl]quinoline-2-carboxamide]	< 1000		
O=C(COC1CC(OC(F)(F)F)C1)N[C@@H]1CC[C@@H](c2cnn([C@H]3C[C@@H](OC(F)(F)F)C3)n2)OC1 (stereo partly drawn) [Example 17, 2-[3-cis-(trifluoromethoxy)cyclobutoxy]-N-[(3R,6S)-6-[2-[3-cis-(trifluoromethoxy)cyclobutyl]triazol-4-yl]tetrahydropyran-3-yl]acetamide]	< 1000		
O=C(COc1ccc(Cl)cc1)N[C@H]1CO[C@H](c2nnc(C3CC(OC(F)(F)F)C3)o2)C[C@@H]1F (stereo partly drawn) [Example 67, 2-(4-chlorophenoxy)-N-((3S,4S,6S)-4-fluoro-6-(5-(3-cis-(trifluoromethoxy)cyclobutyl)-1,3,4-oxadiazol-2-yl)tetrahydro-2H-pyran-3-yl)acetamide]	< 1000	3.1	
O=C(COc1ccc(Cl)cc1)NC12CCC(c3nnc([C@H]4C[C@@H](OC(F)(F)F)C4)o3)(CC1)OC2 [Example 26, 2-(4-chlorophenoxy)-N-[1-[5-[3-cis-(trifluoromethoxy)cyclobutyl]-1,3,4-oxadiazol-2-yl]-2-oxabicyclo[2.2.2]octan-4-yl]acetamide]	< 1000	2.2	
CO[C@H]1C[C@@H](NC(=O)COc2ccc(F)cc2)CO[C@@H]1c1nnc([C@H]2C[C@@H](OC(F)(F)F)C2)o1 [Example 36, 2-(4-fluorophenoxy)-N-((3R,5S,6S)-5-methoxy-6-(5-(3-cis-(trifluoromethoxy)cyclobutyl)-1,3,4-oxadiazol-2-yl)tetrahydro-2H-pyran-3-yl)acetamide]	< 1000		
O=C(COc1ccc(F)cc1)N[C@@H]1CC[C@@H](c2nc(C3CC(OC(F)(F)F)C3)no2)OC1 (stereo partly shown) [Example 38]	< 1000		
O=C(COc1ccc(F)cc1)N[C@@H]1CC[C@@H](c2noc(C3CC(OC(F)(F)F)C3)n2)OC1 (stereo partly shown) [Example 53]	< 1000		
O=C(COc1ccc(F)cc1F)N[C@@H]1CC[C@@H](c2nnc([C@H]3C[C@@H](OC(F)(F)F)C3)o2)OC1 [Example 37, 2-(2,4-difluorophenoxy)-N-[(3R,6S)-6-[5-[3-cis-(trifluoromethoxy)cyclobutyl]-1,3,4-oxadiazol-2-yl]tetrahydropyran-3-yl]acetamide]	< 1000		
O=C(COc1ccc(Cl)c(F)c1)N[C@@H]1CC[C@@H](c2nnc(COC(F)(F)F)o2)OC1 [Example 55]		22.7	
O=C(COc1ccc(Cl)cc1)N[C@@H]1CC[C@@H](C(O)COC2CC(OC(F)(F)F)C2)OC1 (single isomer, unassigned) [Example 64]			< 1000
O=C(COC1CC(OC(F)(F)F)C1)NC12CCC(c3cnn(-c4ccc(Cl)c(F)c4)c3)(CC1)OC2 (stereo not shown) [Example 48]	< 1000		
O=C(COc1ccc(Cl)cc1)N[C@@H]1CC[C@@H](c2nnc([C@H]3C[C@@H](OC(F)(F)F)C3)o2)OC1 [Example 2, 2-(4-chlorophenoxy)-N-[(3R,6S)-6-[5-[3-cis-(trifluoromethoxy)cyclobutyl]-1,3,4-oxadiazol-2-yl]tetrahydropyran-3-yl]acetamide]	< 1000	2.7	
O=C(N[C@@H]1CC[C@@H](c2nnc(C3CC(OC(F)(F)F)C3)o2)OC1)c1ccc2cc(F)c(F)cc2n1 (stereo partly drawn) [Example 75, 6,7-difluoro-N-((3R,6S)-6-(5-(3-cis-(trifluoromethoxy)cyclobutyl)-1,3,4-oxadiazol-2-yl)tetrahydro-2H-pyran-3-yl)quinoline-2-carboxamide]	< 1000	8.9	
O=C(COC1CC(OC(F)(F)F)C1)N[C@@H]1CC[C@@H](c2nnc(-c3ccc(Cl)c(F)c3)o2)OC1 (stereo partly drawn) [Example 19, N-[(3R,6S)-6-[5-(4-chloro-3-fluoro-phenyl)-1,3,4-oxadiazol-2-yl]tetrahydropyran-3-yl]-2-[3-cis-(trifluoromethoxy)cyclobutoxy]acetamide]	< 1000	29.5	
O=C(COC1CC(OC(F)(F)F)C1)NC12CCC(C3CC(c4ccc(Cl)c(F)c4)=NO3)(CC1)OC2 (stereo not shown) [Example 49]	> 10000		
